Laboratory results reported in US10624852B2, “Liposomes comprising a calcium phosphate-containing precipitate” (The University of North Carolina at Chapel Hill, priority 2009, dated 2020).
Non-standard residues stand in square brackets, D forms with d. No end group written: not given here. pY = N[C@@H](Cc1ccc(OP(=O)(O)O)cc1)C(=O)O

Columns and labels:
[1] = Trapping / encapsulation efficiency; assay type: physicochemical; details: cargo encapsulated in LCP-II
Procedure: To […] calculate the trapping efficiency of siRNA in the LCP nanoparticles, the anti-luciferase siRNA was replaced with a carboxyfluoroscein (FAM)-labeled siRNA having the same sequence (Dharmacon Inc, Lafayette, Colo.). The FAM-labeled siRNA LCP nano-particles were dissolved in lysis buffer (2 mM EDTA and 0.05% Trixton-100 in pH 7.8 Tris buffer) for quantitative analysis of the siRNA encapsulation efficiency. Standard siRNA solutions were prepared by diluting the FAM-labeled siRNA in the same lysis buffer. Then, 100 μl of the standard siRNA solution or the LCP solution was added to a 96-well plate and the fluorescence intensity was measured at 525 nm with a plate reader (Plate Chameleon Multilabel Detection Platform, Bioscan Inc., Washington D.C.). The amount of entrapped siRNA in the LCP nanoparticles was calculated based on the standard calibration curve.

H-460 cells = assay: Calcium release in live cells (Fura-2 imaging); assay type: cell-based, human; details: 20 μM cytochalasin D, cells with LCP nanoparticles
Procedure: Two μl of 2 mM Fura-2 AM and 2 μl of 20% Pluronic-127 were mixed for 5 min and added to 1 ml phenol red free DMEM cell culture medium before use. About 5×10^4 H-460 cells were incubated in a Lab-Tek 8-well glass chamber slide system (Fisher, Pittsburgh, Pa.) for 24 h. Two hundred μl of a 2 μM Fura-2 AM solution was added to the cell culture chamber, followed by a 50 min incubation. After washing two times with PBS, the cells were incubated in phenol red-free DMEM cell culture medium and imaged with a Nikon TE2000U microscope and OrcaER camera. Emission was monitored at 510 nm with an alternating excitation wavelength of 340 nm and 380 nm from a Xenon light source. After adding 50 μl of LCP nanoparticles, fluorescence image was obtained by setting the excitation wavelength at 340 nm for green color and 380 nm for red color. The ratio of 340 nm/380 nm was proportional to the intracellular free Ca^2+ concentration (Hirst et al. (1999) Methods Mol Biol 114:31-39). All experiments were performed at room temperature.
To study the inhibition of endocytosis, 20 mM cytochalasin D was prepared in DMSO solution and freshly diluted 1,000 times by phenol red-free DMEM medium for use. After incubating with Fura-2 AM for 60 min and 20 μM cytochalasin D for 5 min, cells were imaged as described in the presence of LCP nanoparticles.

Compound	trapping efficiency in LCP-II nanoparticles [1]	effect on LCP-induced color change (endocytosis inhibition) (H-460 cells)
Nc1ccn([C@@H]2O[C@H](COP(=O)(O)O)[C@@H](O)[C@@H]2O)c(=O)n1 [AraC monophosphate]	about 94%	
C=C1[C@@H](C)[C@H]2[C@H](Cc3ccccc3)NC(=O)[C@]23[C@H](OC(C)=O)/C=C/[C@@](C)(O)C(=O)[C@@H](C)C/C=C/[C@H]3[C@@H]1O [cytochalasin D]		significantly reduced the color change
Nc1ccn(C2OC(COP(=O)(O)O)[C@H](O)C2(F)F)c(=O)n1 (some centres unmarked) [gemcitabine monophosphate, Gemcitabine monophosphate]	~88%	
O=C([O-])c1ccccc1-c1c2ccc(=O)cc-2oc2cc([O-])ccc12.[Na+].[Na+] [sodium fluorescein, reference compound]	about 40%	
EEEEpYFELV (EEEE[pY]FELV) [peptide wherein the tyrosine (Y) is phosphorylated]	~82%	
